Data: article doi:10.1101/2023.10.03.560722, “Drug Discovery in Low Data Regimes: Leveraging a Computational Pipeline for the Discovery of Novel SARS-CoV-2 Nsp14-MTase Inhibitors” (bioRxiv, 2024)
Where two headings read alike, the source gives them in different places.

Key:
Test in all cases: human MTase selectivity panel
Format in all cases: biochemical
MLL3 = MLL3 (Homo sapiens, UniProt Q8NEZ4)
PRDM9 = PRDM9 (Homo sapiens, UniProt Q9NQV7)
NSD3 = molecular target: T1, NSD3 (Homo sapiens, UniProt Q9BZ95)
T1 sequence (Q9BZ95 1-1437): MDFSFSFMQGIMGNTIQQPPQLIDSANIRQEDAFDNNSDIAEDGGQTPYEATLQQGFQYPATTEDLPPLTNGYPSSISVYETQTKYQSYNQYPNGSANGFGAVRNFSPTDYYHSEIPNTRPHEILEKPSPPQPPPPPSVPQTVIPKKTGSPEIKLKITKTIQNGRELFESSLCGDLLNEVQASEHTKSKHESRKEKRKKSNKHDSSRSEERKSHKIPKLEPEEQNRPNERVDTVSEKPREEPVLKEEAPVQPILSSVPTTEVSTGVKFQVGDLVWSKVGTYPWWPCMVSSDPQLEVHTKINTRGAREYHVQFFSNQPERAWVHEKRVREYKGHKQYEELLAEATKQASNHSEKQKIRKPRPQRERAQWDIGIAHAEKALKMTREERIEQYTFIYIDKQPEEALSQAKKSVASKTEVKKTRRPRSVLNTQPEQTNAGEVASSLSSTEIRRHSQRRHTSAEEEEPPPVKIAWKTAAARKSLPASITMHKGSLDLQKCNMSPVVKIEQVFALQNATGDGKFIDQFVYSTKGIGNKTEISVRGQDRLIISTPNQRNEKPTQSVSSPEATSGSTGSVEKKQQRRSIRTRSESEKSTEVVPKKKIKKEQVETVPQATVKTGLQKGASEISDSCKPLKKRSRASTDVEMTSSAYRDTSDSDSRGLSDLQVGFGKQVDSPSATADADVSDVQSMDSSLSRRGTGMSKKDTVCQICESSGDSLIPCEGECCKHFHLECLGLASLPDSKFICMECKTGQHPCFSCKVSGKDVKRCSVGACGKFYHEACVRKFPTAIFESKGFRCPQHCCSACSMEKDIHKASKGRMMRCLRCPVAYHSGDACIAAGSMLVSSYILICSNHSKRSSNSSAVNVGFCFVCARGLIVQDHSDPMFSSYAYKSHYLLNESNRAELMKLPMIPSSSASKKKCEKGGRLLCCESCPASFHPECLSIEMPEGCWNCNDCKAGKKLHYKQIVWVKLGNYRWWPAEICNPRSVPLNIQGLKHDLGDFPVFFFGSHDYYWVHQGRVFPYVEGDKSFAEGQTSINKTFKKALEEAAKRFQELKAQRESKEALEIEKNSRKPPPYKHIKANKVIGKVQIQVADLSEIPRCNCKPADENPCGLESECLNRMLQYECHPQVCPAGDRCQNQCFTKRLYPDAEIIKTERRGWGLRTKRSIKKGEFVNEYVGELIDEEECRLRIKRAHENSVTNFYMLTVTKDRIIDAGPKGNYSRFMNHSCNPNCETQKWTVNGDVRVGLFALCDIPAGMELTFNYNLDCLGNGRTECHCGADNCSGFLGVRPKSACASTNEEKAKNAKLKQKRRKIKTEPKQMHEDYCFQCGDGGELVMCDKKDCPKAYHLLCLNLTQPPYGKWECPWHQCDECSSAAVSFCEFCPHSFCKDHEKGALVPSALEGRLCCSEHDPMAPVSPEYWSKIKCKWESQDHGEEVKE

SETD8 = molecular target: T2, SETD8 (Homo sapiens, UniProt Q9NQR1)
T2 sequence (Q9NQR1 1-393): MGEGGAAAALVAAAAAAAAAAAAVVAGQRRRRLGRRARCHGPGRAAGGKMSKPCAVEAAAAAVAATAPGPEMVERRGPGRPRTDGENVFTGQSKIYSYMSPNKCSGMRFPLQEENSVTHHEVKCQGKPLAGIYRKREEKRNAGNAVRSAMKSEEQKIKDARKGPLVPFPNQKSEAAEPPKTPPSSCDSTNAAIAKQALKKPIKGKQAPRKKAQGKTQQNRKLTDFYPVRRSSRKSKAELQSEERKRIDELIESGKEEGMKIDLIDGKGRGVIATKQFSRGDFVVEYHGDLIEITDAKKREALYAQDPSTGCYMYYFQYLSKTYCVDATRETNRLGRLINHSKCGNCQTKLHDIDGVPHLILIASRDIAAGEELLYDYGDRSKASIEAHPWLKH

[1] = average ± SD, read-out: Activity (%) at 10 µM Average
[2] = read-out: Activity (%) at 10 µM Replicate 1
[3] = read-out: Activity (%) at 10 µM Replicate 2
[4] = read-out: Activity (%) at 10 µM Replicate 3

Chain of PRDM9 (Q9NQV7 whole entry): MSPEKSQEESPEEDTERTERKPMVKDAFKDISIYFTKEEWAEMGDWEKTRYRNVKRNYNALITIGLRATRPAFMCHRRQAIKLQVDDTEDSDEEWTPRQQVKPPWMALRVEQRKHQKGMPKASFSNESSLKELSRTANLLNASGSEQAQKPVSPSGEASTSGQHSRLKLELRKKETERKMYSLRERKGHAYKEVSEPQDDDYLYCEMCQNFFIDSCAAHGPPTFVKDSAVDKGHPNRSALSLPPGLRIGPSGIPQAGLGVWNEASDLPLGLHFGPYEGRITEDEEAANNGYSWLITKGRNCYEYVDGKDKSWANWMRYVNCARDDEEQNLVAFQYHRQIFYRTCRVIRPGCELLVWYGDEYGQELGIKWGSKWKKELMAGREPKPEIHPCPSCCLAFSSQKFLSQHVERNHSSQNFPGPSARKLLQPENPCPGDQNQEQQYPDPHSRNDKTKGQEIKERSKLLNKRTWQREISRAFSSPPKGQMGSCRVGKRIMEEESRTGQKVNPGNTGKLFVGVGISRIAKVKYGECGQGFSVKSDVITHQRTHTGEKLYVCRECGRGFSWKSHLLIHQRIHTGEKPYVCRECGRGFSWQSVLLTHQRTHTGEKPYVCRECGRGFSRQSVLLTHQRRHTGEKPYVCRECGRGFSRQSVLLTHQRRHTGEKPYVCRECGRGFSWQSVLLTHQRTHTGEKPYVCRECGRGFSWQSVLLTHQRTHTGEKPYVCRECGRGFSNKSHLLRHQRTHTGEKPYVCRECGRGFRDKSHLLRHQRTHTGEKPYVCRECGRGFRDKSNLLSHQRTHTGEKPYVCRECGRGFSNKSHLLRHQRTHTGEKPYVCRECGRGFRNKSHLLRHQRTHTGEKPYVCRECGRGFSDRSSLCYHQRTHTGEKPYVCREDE

Question: Which results are given for `Nc1ncnc2c1ncn2[C@@H]1O[C@H](CSCc2ccc(Cl)cc2)[C@@H](O)[C@H]1O` [NSC620333]?
Answer: activity at 10 µM (MLL3; [1]): 51 ± 6%; activity at 10 µM (MLL3; [2]): 44%; activity at 10 µM (MLL3; [3]): 57%; activity at 10 µM (MLL3; [4]): 53%; activity at 10 µM (PRDM9; [1]): 106 ± 3%; activity at 10 µM (PRDM9; [2]): 110%; activity at 10 µM (PRDM9; [3]): 105%; activity at 10 µM (PRDM9; [4]): 104%; activity at 10 µM (NSD3; [1]): 110 ± 5%; activity at 10 µM (NSD3; [2]): 112%; activity at 10 µM (NSD3; [3]): 104%; activity at 10 µM (NSD3; [4]): 115%; activity at 10 µM (SETD8; [1]): 85 ± 6%; activity at 10 µM (SETD8; [2]): 79%; activity at 10 µM (SETD8; [3]): 90%; activity at 10 µM (SETD8; [4]): 86%
